Data published in PubChem BioAssay (NCI).
Values joined by “and” are separate entries in the source; they are usually repeats but may differ in a detail not shown here. Equal entries are not always repeated.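 Tested at 5 concentrations; 48 h exposure; 96-well plates; endpoints linearly interpolated, else capped at highest concentration. At the GI50, growth is halved. The concentration for full growth arrest is given as TGI.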

Legend:
Experiment in all cases: inhibition of tumour cell growth, NCI panel, 48 h; in the data active = GI50 below about 0.43 µM; inactive = the rest
786-0 renal = test system: 786-0 renal
A498 renal = test system: A498 renal
A549 NSCLC = test system: A549 NSCLC
ACHN renal = test system: ACHN renal
CAKI-1 renal = test system: CAKI-1 renal
CCRF-CEM leukemia = test system: CCRF-CEM leukemia
COLO 205 colon = test system: COLO 205 colon
DLD-1 colon = test system: DLD-1 colon
DMS 114 small cell lung = test system: DMS 114 small cell lung
DMS 273 small cell lung = test system: DMS 273 small cell lung
EKVX NSCLC = test system: EKVX NSCLC
HCC-2998 colon = test system: HCC-2998 colon
HCT-116 colon = test system: HCT-116 colon
HL-60(TB) leukemia = test system: HL-60(TB) leukemia
HOP-62 NSCLC = test system: HOP-62 NSCLC
HOP-92 NSCLC = test system: HOP-92 NSCLC
HT29 colon = test system: HT29 colon
IGROV1 ovarian = test system: IGROV1 ovarian
K-562 leukemia = test system: K-562 leukemia
KM12 colon = test system: KM12 colon
KM20L2 colon = test system: KM20L2 colon
LOX IMVI melanoma = test system: LOX IMVI melanoma
LXFL 529 NSCLC = test system: LXFL 529 NSCLC
M14 melanoma = test system: M14 melanoma
M19-MEL melanoma = test system: M19-MEL melanoma
MALME-3M melanoma = test system: MALME-3M melanoma
NCI-H226 lung = test system: NCI-H226 lung
NCI-H23 lung = test system: NCI-H23 lung
NCI-H460 lung = test system: NCI-H460 lung
NCI-H522 lung = test system: NCI-H522 lung
OVCAR-3 ovarian = test system: OVCAR-3 ovarian
OVCAR-4 ovarian = test system: OVCAR-4 ovarian
OVCAR-5 ovarian = test system: OVCAR-5 ovarian
OVCAR-8 ovarian = test system: OVCAR-8 ovarian
RPMI-8226 leukemia = test system: RPMI-8226 leukemia
RXF 393 renal = test system: RXF 393 renal
SF-268 CNS = test system: SF-268 CNS
SF-295 CNS = test system: SF-295 CNS
SF-539 CNS = test system: SF-539 CNS
SK-MEL-28 melanoma = test system: SK-MEL-28 melanoma
SK-MEL-5 melanoma = test system: SK-MEL-5 melanoma
SK-OV-3 ovarian = test system: SK-OV-3 ovarian
SN12C renal = test system: SN12C renal
SNB-19 CNS = test system: SNB-19 CNS
SNB-75 CNS = test system: SNB-75 CNS
SNB-78 CNS = test system: SNB-78 CNS
SW-620 colon = test system: SW-620 colon
TK-10 renal = test system: TK-10 renal
U251 CNS = test system: U251 CNS
UACC-257 melanoma = test system: UACC-257 melanoma
UACC-62 melanoma = test system: UACC-62 melanoma
UO-31 renal = test system: UO-31 renal
XF 498 CNS = test system: XF 498 CNS
HCT-15 colon = test system: HCT-15 colon
HOP-18 NSCLC = test system: HOP-18 NSCLC
MOLT-4 leukemia = test system: MOLT-4 leukemia
RXF-631 renal = test system: RXF-631 renal
SK-MEL-2 melanoma = test system: SK-MEL-2 melanoma
SR leukemia = test system: SR leukemia

CCOC(=O)C1N(S(=O)(=O)c2ccc(C)cc2)CCC12c1ccccc1N(C(C)=O)C2C(/C=C/C(=O)OC)=C/C(=O)OC (stereo not drawn)
> 100 µM: TGI (786-0 renal) | TGI (A498 renal) | TGI (A549 NSCLC) | TGI (ACHN renal) | TGI (CAKI-1 renal) | TGI (CCRF-CEM leukemia) | TGI (COLO 205 colon) | TGI (DLD-1 colon) | TGI (DMS 114 small cell lung) | TGI (DMS 273 small cell lung) | TGI (EKVX NSCLC) | TGI (HCC-2998 colon) | TGI (HCT-116 colon) | TGI (HL-60(TB) leukemia) | TGI (HOP-62 NSCLC) | TGI (HOP-92 NSCLC) | TGI (HT29 colon) | TGI (IGROV1 ovarian) | TGI (K-562 leukemia) | TGI (KM12 colon) | TGI (KM20L2 colon) | TGI (LOX IMVI melanoma) | TGI (LXFL 529 NSCLC) | TGI (M14 melanoma) | TGI (M19-MEL melanoma) | TGI (MALME-3M melanoma) | TGI (NCI-H226 lung) | TGI (NCI-H23 lung) | TGI (NCI-H460 lung) | TGI (NCI-H522 lung) | TGI (OVCAR-3 ovarian) | TGI (OVCAR-4 ovarian) | TGI (OVCAR-5 ovarian) | TGI (OVCAR-8 ovarian) | TGI (RPMI-8226 leukemia) | TGI (RXF 393 renal) | TGI (SF-268 CNS) | TGI (SF-295 CNS) | TGI (SF-539 CNS) | TGI (SK-MEL-28 melanoma) | TGI (SK-MEL-5 melanoma) | TGI (SK-OV-3 ovarian) | TGI (SN12C renal) | TGI (SNB-19 CNS) | TGI (SNB-75 CNS) | TGI (SNB-78 CNS) | TGI (SW-620 colon) | TGI (TK-10 renal) | TGI (U251 CNS) | TGI (UACC-257 melanoma) | TGI (UACC-62 melanoma) | TGI (UO-31 renal) | TGI (XF 498 CNS)

C=CN1C(=O)OC(c2ccccc2)C1c1ccccc1 (stereo not drawn)
> 100 µM: TGI (786-0 renal) | TGI (A498 renal) | TGI (A549 NSCLC) | TGI (ACHN renal) | TGI (CAKI-1 renal) | TGI (CCRF-CEM leukemia) | TGI (COLO 205 colon) | TGI (DLD-1 colon) | TGI (DMS 114 small cell lung) | TGI (DMS 273 small cell lung) | TGI (EKVX NSCLC) | TGI (HCC-2998 colon) | TGI (HCT-116 colon) | TGI (HCT-15 colon) | TGI (HL-60(TB) leukemia) | TGI (HOP-18 NSCLC) | TGI (HOP-62 NSCLC) | TGI (HOP-92 NSCLC) | TGI (HT29 colon) | TGI (IGROV1 ovarian) | TGI (K-562 leukemia) | TGI (KM12 colon) | TGI (KM20L2 colon) | TGI (LOX IMVI melanoma) | TGI (LXFL 529 NSCLC) | TGI (M14 melanoma) | TGI (M19-MEL melanoma) | TGI (MALME-3M melanoma) | TGI (MOLT-4 leukemia) | TGI (NCI-H226 lung) | TGI (NCI-H23 lung) | TGI (NCI-H460 lung) | TGI (NCI-H522 lung) | TGI (OVCAR-3 ovarian) | TGI (OVCAR-4 ovarian) | TGI (OVCAR-5 ovarian) | TGI (OVCAR-8 ovarian) | TGI (RPMI-8226 leukemia) | TGI (RXF 393 renal) | TGI (RXF-631 renal) | TGI (SF-268 CNS) | TGI (SF-295 CNS) | TGI (SF-539 CNS) | TGI (SK-MEL-2 melanoma) | TGI (SK-MEL-28 melanoma) | TGI (SK-MEL-5 melanoma) | TGI (SK-OV-3 ovarian) | TGI (SN12C renal) | TGI (SNB-19 CNS) | TGI (SNB-78 CNS) | TGI (SR leukemia) | TGI (SW-620 colon) | TGI (TK-10 renal) | TGI (U251 CNS) | TGI (UACC-257 melanoma) | TGI (UACC-62 melanoma) | TGI (UO-31 renal)
inactive: GI50 (786-0 renal) > 100 µM | GI50 (A498 renal) > 100 µM | GI50 (A549 NSCLC) > 100 µM | GI50 (ACHN renal) > 100 µM | GI50 (CAKI-1 renal) > 100 µM | GI50 (CCRF-CEM leukemia) > 100 µM | GI50 (COLO 205 colon) > 100 µM | GI50 (DLD-1 colon) > 100 µM | GI50 (DMS 114 small cell lung) > 31.6 µM and 73.1 µM | GI50 (EKVX NSCLC) > 100 µM | GI50 (HCC-2998 colon) > 100 µM | GI50 (HCT-116 colon) > 100 µM | GI50 (HCT-15 colon) > 100 µM | GI50 (HOP-18 NSCLC) > 100 µM | GI50 (HOP-62 NSCLC) 52.8 µM | GI50 (HOP-92 NSCLC) > 100 µM | GI50 (HT29 colon) > 100 µM | GI50 (IGROV1 ovarian) > 100 µM | GI50 (KM12 colon) > 100 µM | GI50 (KM20L2 colon) > 100 µM | GI50 (LXFL 529 NSCLC) > 100 µM | GI50 (M14 melanoma) > 100 µM | GI50 (M19-MEL melanoma) > 100 µM | GI50 (MALME-3M melanoma) > 100 µM | GI50 (MOLT-4 leukemia) > 100 µM | GI50 (NCI-H226 lung) > 100 µM | GI50 (NCI-H23 lung) > 100 µM | GI50 (NCI-H460 lung) > 100 µM | GI50 (NCI-H522 lung) > 100 µM | GI50 (OVCAR-3 ovarian) > 100 µM | GI50 (OVCAR-4 ovarian) > 100 µM | GI50 (OVCAR-8 ovarian) > 100 µM | GI50 (RPMI-8226 leukemia) > 31.6 µM and 88.6 µM | GI50 (RXF 393 renal) > 100 µM | GI50 (RXF-631 renal) > 100 µM | GI50 (SF-268 CNS) > 100 µM | GI50 (SK-MEL-2 melanoma) > 100 µM | GI50 (SK-MEL-28 melanoma) > 100 µM | GI50 (SK-MEL-5 melanoma) > 100 µM | GI50 (SK-OV-3 ovarian) > 100 µM | GI50 (SN12C renal) > 100 µM | GI50 (SNB-19 CNS) > 100 µM | GI50 (SNB-78 CNS) > 100 µM | GI50 (TK-10 renal) > 100 µM | GI50 (UACC-257 melanoma) > 100 µM | GI50 (UACC-62 melanoma) > 100 µM | GI50 (UO-31 renal) > 100 µM
21.9 µM and > 100 µM: TGI (SNB-75 CNS)
